According to patent publication US10538567B2, “Compounds as peptidic trigonal GLP1/glucagon/GIP receptor agonists” (priority 2016, dated 2020):
Numbered stars: 1 amine (or outer) side, 2 acyl side, 3 side chain; on linkers, the order of the positions; unused ones are H or OH. Square brackets hold non-standard residues; d marks the D form. Side chains are listed from the residue outwards. Peptide text beside a SMILES is read from it. * marks the point of attachment. γGlu = O=C(O)[C@H](CCC(=O)[*:2])N[*:1]; Palmitoyl = CCCCCCCCCCCCCCCC(=O)*; Aib = CC(C)(N)C(=O)O

Tests used:
human GLP-1 receptor = target: T1, human GLP-1 receptor (Homo sapiens, UniProt P43220); test: cAMP response (HTRF) of HEK-293 cells stably expressing human GLP-1 receptor; type: cell-based; conditions: Table 8; read-out: EC50 hGLP-1R
T1 construct: expressed in transfected cells; host or cells: HEK-293
Method: (§1) cAMP content of cells was determined using a kit from Cisbio Corp. (cat. no. 62AM4PEJ) based on HTRF (Homogenous Time Resolved Fluorescence). For preparation, cells were split into T175 culture flasks and grown overnight to near confluency in medium (DMEM/10% FBS). Medium was then removed and cells washed with PBS lacking calcium and magnesium, followed by proteinase treatment with accutase (Sigma-Aldrich cat. no. A6964). Detached cells were washed and resuspended in assay buffer (1×HBSS; 20 mM HEPES, 0.1% BSA, 2 mM IBMX) and cellular density determined. They were then diluted to 400000 cells/ml and 25 μl-aliquots dispensed into the wells of 96-well plates. For measurement, 25 μl of test compound in assay buffer was added to the wells, followed by incubation for 30 minutes at room temperature.
(§2) Potencies of peptidic compounds at the GLP-1, glucagon and GIP receptors were determined by exposing cells expressing human glucagon receptor (hGlucagon R), human GIP receptor (hGIP-R) or human GLP-1 receptor (hGLP-1 R) to the listed compounds at increasing concentrations and measuring the formed cAMP as described in Methods.

[1] = system: female diet-induced obese (DIO) C57BL/6 mice; test: Acute and chronic effects after s.c. treatment in female diet-induced obese (DIO) C57BL/6 mice; type: in vivo; conditions: for time until mice habituated to the feed intake suppression / Feed consumption estimate: DIO mice, 30 μg/kg s.c. twice-daily; for Feed consumption estimate: after dosing start; for Blood glucose profile following first treatment: fed DIO mice, day 1, 30 μg/kg s.c., 0-24 hours post-dose
Method: Female C57BL/6NHsd mice were ordered group housed from Envigo RMS Inc., shipped group housed and remained group housed with shipped cage mates in shoebox caging with wood chip bedding until day 38 of the predose phase. At the study start mice were between 25-26 weeks old.
Mice were housed under vivarium conditions that included a 12 h light/dark cycle (light phase 04:00 AM-4:00 PM), room temperatures between 23-26° C. and a relative humidity between 30-70%. All animals had free access to water and a high fat diet (TD97366) for 16 weeks prior to pharmacological intervention (dosing phase). Feed was replaced with fresh feed weekly until and for the last time on day 38 of the predose phase. During the subsequent dosing phase, approximately 50% of the remaining feed were removed, replaced with fresh feed, and pellets were mixed evenly once per week.
On predose day 38, obese DIO mice were assigned to treatment groups (n=8) to match mean body masses between all DIO groups. An age-matched group with ad libitum access to a rodent maintenance diet (Teklad Global Diets Rodent 2014, pelleted) was included in the study as a lean control group. In the predosing phase from day 32 through 38, all study animals were treated with vehicle (Phosphate Buffered Saline, PBS, Gibco, without CaCl2 and MgCl2) once daily (s.c. approximately 0.2 mL/mouse).
On day 37 of the predose phase, the test article was diluted with PBS to a concentration of 100 μg/mL and aliquots of this stock solution were stored at approximately ≤−60° C. Stock aliquots were thawed for weekly use and thereafter stored in a refrigerator at approximately 4° C. The injected test article solution was prepared fresh once on each dosing day by diluting stock solution with PBS to achieve the desired concentration.
Mice were treated twice daily with a s.c. injection of PBS-vehicle or the test article for 28 days. The morning dosing was initiated and completed between 06:00 and 07:30 AM and the afternoon dosing between 2:00 and 3:30 PM. On day 28 of the dosing phase only the morning dose was administered. The applied volume was 5 ml/kg and the dose was adjusted to the most recent body mass recording of each individual.
Animals had unlimited access to water and feed during the experiment. On day 1 of the dosing phase approximately 5 μL of blood were collected via tail clips at hour 0 prior to the first s.c. dose of PBS-vehicle or test article and 1, 2, 3, 4, 6, and 24 hours post-dose in non-anesthetized animals. The 24 hour blood collection was performed prior to dosing on day 2. Between the 6 and 24 hour blood sample the afternoon dose was administered. Glucose measurements were performed in whole blood and in duplicate or triplicate using Aviva glucometers.
Body mass was measured daily approximately between 06:00-07:30 AM from day 32 through 38 of the predosing phase and throughout the 28 days of the dosing phase. During the dosing phase mice were treated twice daily with either a s.c. injection of PBS-vehicle or test article.
To determine whole body fat mass Quantitative Nuclear Magnetic Resonance (QNMR) measurements were performed on predosing day 37 and on day 26 of the dosing phase. During the dosing phase mice were treated twice daily with either a s.c. injection of PBS-vehicle or test article.
Feed consumption was based on the daily assessment of the feeder weights of each cage between 06:00-07:30 AM. Each cage housed four mice and feed consumption was calculated throughout the 28 days of the dosing phase. During the dosing phase mice were treated twice daily with either a s.c. injection of PBS-vehicle or test article.
On day 28 blood was collected prior to any other inlife activities for determination of plasma insulin concentrations. Then the morning dose was administered and necropsy was performed 4 hours post-dose. For this purpose animals were anesthetized with isoflurane and blood was collected by orbital bleeding. […]

male ApoE KO mice = test: Anti-atherosclerotic activity in ApoE KO mice, 16 weeks minipump infusion; type: in vivo; conditions: 150 μg/kg/day; for reduction of atherosclerotic plaques relative to vehicle control: 4 months (16 weeks) s.c. minipump; for LDL-cholesterol: 16 weeks
Excerpt: The apolipoprotein E (ApoE) knockout (KO) mouse model is widely used to investigate atherosclerosis. These mice spontaneously develop atherosclerotic lesions that are morphologically similar to those observed in humans (Meir & Leitersdorf 2004, Arterioscler Thromb Vasc Biol 24: 1006-1014, Rosenfeld et al. 2000, Arterioscler Thromb Vasc Biol 20: 2587-2592).
Male ApoE KO mice (B.129P2-apoetm1Unc/J) were randomly allocated to control or treatment groups (N=15 per group); wild-type mice (C57BL6/J) received vehicle treatment and acted as a second, healthy control.
ApoE KO and wild-type mice received constant 16 weeks infusion using subcutaneous osmotic minipumps (ALZET™) filled with either vehicle (sterile acetate buffer, pH 4.5), Peptides SEQ ID NO. 6 & SEQ ID NO. 11 (150 μg/kg/day) or with Liraglutide (600 μg/kg/day). Body weight and food intake was monitored throughout the study on a weekly basis.
Blood samples for blood lipid analysis were drawn before treatment and at weeks 7 and 16 to analyze total cholesterol, low density lipoprotein (LDL) cholesterol and high density lipoprotein (HDL) cholesterol (not shown).
The aorta was dissected and aortic atherosclerotic plaque formation was measured as absolute and relative plaque area (% oilred stained area of total aortic surface area) using quantitative and automated image analysis.

human glucagon receptor = target: T2, human glucagon receptor (Homo sapiens, UniProt P47871); test: cAMP response (HTRF) of HEK-293 cells stably expressing human glucagon receptor; type: cell-based; conditions: Table 8; read-out: EC50 hGlucagon R
T2 construct: expressed in transfected cells; host or cells: HEK-293
Method: as §1, §2

T1 sequence (P43220 24-463): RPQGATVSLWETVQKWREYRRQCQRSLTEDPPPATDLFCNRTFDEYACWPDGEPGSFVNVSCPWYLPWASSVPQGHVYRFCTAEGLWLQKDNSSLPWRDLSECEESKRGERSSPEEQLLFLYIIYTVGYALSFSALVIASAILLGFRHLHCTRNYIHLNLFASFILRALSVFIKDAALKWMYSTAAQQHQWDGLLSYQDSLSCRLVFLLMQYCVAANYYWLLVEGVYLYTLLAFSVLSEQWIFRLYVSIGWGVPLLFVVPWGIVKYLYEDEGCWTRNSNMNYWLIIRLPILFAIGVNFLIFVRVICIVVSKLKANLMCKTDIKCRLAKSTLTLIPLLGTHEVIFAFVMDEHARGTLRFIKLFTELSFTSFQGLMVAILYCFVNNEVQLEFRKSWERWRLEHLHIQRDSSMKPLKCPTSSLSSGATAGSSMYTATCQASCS
T2 sequence (P47871 26-477): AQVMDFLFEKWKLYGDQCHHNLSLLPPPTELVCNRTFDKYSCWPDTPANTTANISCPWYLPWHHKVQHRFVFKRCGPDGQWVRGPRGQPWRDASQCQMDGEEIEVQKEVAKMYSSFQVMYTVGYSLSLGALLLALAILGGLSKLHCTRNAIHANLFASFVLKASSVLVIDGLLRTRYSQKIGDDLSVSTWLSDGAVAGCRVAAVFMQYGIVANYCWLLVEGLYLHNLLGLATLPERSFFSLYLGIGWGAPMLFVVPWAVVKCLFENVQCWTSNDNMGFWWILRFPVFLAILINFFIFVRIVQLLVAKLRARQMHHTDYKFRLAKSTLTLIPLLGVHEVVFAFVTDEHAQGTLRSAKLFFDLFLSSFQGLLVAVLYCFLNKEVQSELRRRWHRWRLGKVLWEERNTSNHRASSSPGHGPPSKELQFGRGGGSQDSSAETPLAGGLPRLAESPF

Row | EC50 (human GLP-1 receptor) [pM] | EC50 (human glucagon receptor) [pM] | SMILES | time until mice habituated to the feed intake suppression [1] | Feed consumption estimate [1] | Blood glucose profile following first treatment [1] | reduction of atherosclerotic plaques relative to vehicle control (male ApoE KO mice) [%] | LDL-cholesterol (male ApoE KO mice)
1 | 1.4 | – | CCCCCCCCCCCCCCCC(=O)N[C@@H](CCC(=O)N[C@@H](CCC(=O)NCCCC[C@H](NC(=O)[C@H](CC(C)C)NC(=O)[C@H](CCCCN)NC(=O)[C@H](CO)NC(=O)[C@H](CC(C)C)NC(=O)[C@H](CC(=O)O)NC(=O)[C@H](CO)NC(=O)[C@@H](NC(=O)[C@H](Cc1ccccc1)NC(=O)[C@@H](NC(=O)CNC(=O)[C@H](Cc1c[nH]cn1)NC(=O)C(C)(C)NC(=O)[C@@H](N)Cc1c[nH]cn1)[C@@H](C)O)[C@@H](C)O)C(=O)N[C@@H](CCC(=O)O)C(=O)N[C@@H](CCC(=O)O)C(=O)N[C@@H](CCC(N)=O)C(=O)N[C@@H](CCCNC(=N)N)C(=O)N[C@@H](CCC(N)=O)C(=O)N[C@@H](CCCCN)C(=O)N[C@@H](CCC(=O)O)C(=O)N[C@@H](Cc1ccccc1)C(=O)N[C@H](C(=O)N[C@@H](CCC(=O)O)C(=O)N[C@@H](Cc1c[nH]c2ccccc12)C(=O)N[C@@H](CC(C)C)C(=O)N[C@@H](CCCCN)C(=O)N[C@@H](C)C(=O)NCC(=O)NCC(=O)N[C@@H](Cc1c[nH]cn1)C(=O)N1CCC[C@H]1C(=O)N[C@@H](CO)C(=O)NC(C)(C)C(=O)N[C@@H](CCCCN)C(=O)N1CCC[C@H]1C(=O)N1CCC[C@H]1C(=O)N1CCC[C@H]1C(=O)N[C@@H](CCCCN)C(N)=O)[C@@H](C)CC)C(=O)O)C(=O)O [SEQ ID NO: 6, H-Aib-H-G-T-F-T-S-D-L-S-K-L-K[gGlu-gGlu-Palm]-E-E-Q-R-Q-K-E-F-I-E-W-L-K-A-G-G-H-P-S-Aib-K-P-P-P-K-NH2] | approximately ten | suppressed feed intake | pronounced decrease in blood glucose concentrations over 24 hours | 63 | marked reduction
2 | – | 2.1 | CCCCCCCCCCCCCCCC(=O)N[C@@H](CCC(=O)N[C@@H](CCC(=O)NCCCC[C@H](NC(=O)[C@H](CC(C)C)NC(=O)[C@H](CCCCN)NC(=O)[C@H](CO)NC(=O)[C@H](CC(C)C)NC(=O)[C@H](CC(=O)O)NC(=O)[C@H](CO)NC(=O)[C@@H](NC(=O)[C@H](Cc1ccccc1)NC(=O)[C@@H](NC(=O)CNC(=O)[C@H](Cc1c[nH]cn1)NC(=O)C(C)(C)NC(=O)[C@@H](N)Cc1c[nH]cn1)[C@@H](C)O)[C@@H](C)O)C(=O)N[C@@H](CCC(=O)O)C(=O)N[C@@H](CCC(=O)O)C(=O)N[C@@H](CCC(N)=O)C(=O)N[C@@H](CCCNC(=N)N)C(=O)N[C@@H](CCC(N)=O)C(=O)NC(C)(C)C(=O)N[C@@H](CCC(=O)O)C(=O)N[C@@H](Cc1ccccc1)C(=O)N[C@H](C(=O)N[C@@H](CCC(=O)O)C(=O)N[C@@H](Cc1c[nH]c2ccccc12)C(=O)N[C@@H](CC(C)C)C(=O)N[C@@H](CCCCN)C(=O)N[C@@H](C)C(=O)N[C@H](C)C(=O)NCC(=O)N1CCC[C@H]1C(=O)N1CCC[C@H]1C(=O)N[C@@H](CO)C(=O)NC(C)(C)C(=O)N[C@@H](CCCCN)C(=O)N1CCC[C@H]1C(=O)N1CCC[C@H]1C(=O)N1CCC[C@H]1C(=O)N[C@@H](CCCCN)C(N)=O)[C@@H](C)CC)C(=O)O)C(=O)O [SEQ ID NO: 11, H-Aib-H-G-T-F-T-S-D-L-S-K-L-K[gGlu-gGlu-Palm]-E-E-Q-R-Q-Aib-E-F-I-E-W-L-K-A-dAla-G-P-P-S-Aib-K-P-P-P-K-NH2] (H-H[Aib]HGTFTSDLSKLK([γGlu-γGlu-Palmitoyl])EEQRQ[Aib]EFIEWLKA[dA]GPPS[Aib]KPPPK-NH2) | approximately 15 days | suppressed feed intake | pronounced decrease in blood glucose concentrations that persisted over 24 hours | 73 | marked reduction
